Where two headings read alike, the source gives them in different places.
Tests used:
K-562 = conditions: K-562, Leukemia
HOP-92 = conditions: HOP-92, NSCLC
NCI-H522 = conditions: NCI-H522, NSCLC
HCC-2998 = conditions: HCC-2998, Colon cancer
HCT-15 = conditions: HCT-15, Colon cancer
SF-295 = conditions: SF-295, CNS Cancer
M14 = conditions: M14, Melanoma
UACC-62 = conditions: UACC-62, Melanoma
OVCAR-5 = conditions: OVCAR-5, Ovarian Cancer
786-0 = conditions: 786-0, Renal Cancer
A498 = conditions: A498, Renal Cancer
CAKI-1 = conditions: CAKI-1, Renal Cancer
RXF 393 = conditions: RXF 393, Renal Cancer
TK-10 = conditions: TK-10, Renal Cancer
UO-31 = conditions: UO-31, Renal Cancer
DU-145 = conditions: DU-145, Prostate Cancer
MCF7 = conditions: MCF7, Breast Cancer
BT-549 = conditions: BT-549, Breast Cancer
[1] = tested on: NSCLC (Non-small Cell Lung Cancer) cell lines; conditions: NSCLC subpanel
CNS Cancer cell lines = conditions: CNS Cancer subpanel
[2] = tested on: Ovarian Cancer cell lines; conditions: Ovarian Cancer subpanel
[3] = tested on: Prostate Cancer cell lines; conditions: Prostate Cancer subpanel
[4] = read-out: GI50, values range inside panel

**Q.** For “Ethyl(Z)-4-(3-(4-chloro-2-((6-oxothiazolo[3,2-b][1,2,4]triazol-5(6H)-ylidene)methyl)phenyl)propanamido)benzoate [Compound 2i]”, which GI50 (K-562) is on record?
**A.** 18.2 µM

**Q.** What about the TGI (K-562) of the same substance?
**A.** > 100 µM

**Q.** What about the GI50 (HOP-92) of the same substance?
**A.** 10.2 µM

**Q.** What about the TGI (HOP-92) of the same substance?
**A.** 29.51 µM

**Q.** What about the GI50 (NCI-H522) of the same substance?
**A.** 11.7 µM

**Q.** What about the TGI (NCI-H522) of the same substance?
**A.** 28.84 µM

**Q.** And the GI50 (HCC-2998)?
**A.** 16.6 µM

**Q.** And the TGI (HCC-2998)?
**A.** 33.11 µM

**Q.** What about the GI50 (HCT-15) of the same substance?
**A.** 13.8 µM

**Q.** What about the TGI (HCT-15) of the same substance?
**A.** 27.54 µM

**Q.** And the GI50 (SF-295)?
**A.** 10.5 µM

**Q.** And the TGI (SF-295)?
**A.** 23.44 µM

**Q.** And the GI50 (M14)?
**A.** 12.6 µM

**Q.** What about the TGI (M14) of the same substance?
**A.** 27.54 µM

**Q.** And the GI50 (UACC-62)?
**A.** 13.8 µM

**Q.** And the TGI (UACC-62)?
**A.** 26.30 µM

**Q.** And the GI50 (OVCAR-5)?
**A.** 15.5 µM

**Q.** And the TGI (OVCAR-5)?
**A.** 30.19 µM

**Q.** And the GI50 (786-0)?
**A.** 11.2 µM

**Q.** What about the TGI (786-0) of the same substance?
**A.** 23.98 µM

**Q.** And the GI50 (A498)?
**A.** 17.4 µM

**Q.** What about the TGI (A498) of the same substance?
**A.** 31.62 µM

**Q.** What about the GI50 (CAKI-1) of the same substance?
**A.** 10.5 µM

**Q.** What about the TGI (CAKI-1) of the same substance?
**A.** 23.98 µM

**Q.** What about the GI50 (RXF 393) of the same substance?
**A.** 5.75 µM

**Q.** And the TGI (RXF 393)?
**A.** 21.37 µM

**Q.** What about the GI50 (TK-10) of the same substance?
**A.** 16.2 µM

**Q.** And the TGI (TK-10)?
**A.** 29.51 µM

**Q.** And the GI50 (UO-31)?
**A.** 15.1 µM

**Q.** What about the TGI (UO-31) of the same substance?
**A.** 29.51 µM

**Q.** What about the GI50 (DU-145) of the same substance?
**A.** 3.98 µM

**Q.** And the TGI (DU-145)?
**A.** 16.21 µM

**Q.** And the GI50 (MCF7)?
**A.** 5.12 µM

**Q.** What about the TGI (MCF7) of the same substance?
**A.** 19.05 µM

**Q.** And the GI50 (BT-549)?
**A.** 3.8 µM

**Q.** What about the TGI (BT-549) of the same substance?
**A.** 15.84 µM

**Q.** What about the “TGI, panel MG_MID” value [1] of the same substance?
**A.** 30.03 µM

**Q.** And the “TGI, values range inside panel” value [1]?
**A.** 25.70 to 39.81 µM

**Q.** And the GI50 ([1]; read-out: GI50, panel MG_MID)?
**A.** 14.1 µM

**Q.** And the GI50 [1, 4]?
**A.** 10.2 to 19.5 µM

**Q.** And the “TGI, panel MG_MID” value (CNS Cancer cell lines)?
**A.** 27.42 µM

**Q.** What about the “TGI, values range inside panel” value (CNS Cancer cell lines) of the same substance?
**A.** 19.05 to 44.66 µM

**Q.** And the GI50 (CNS Cancer cell lines; read-out: GI50, panel MG_MID)?
**A.** 9.85 µM

**Q.** What about the GI50 (CNS Cancer cell lines; [4]) of the same substance?
**A.** 6.02 to 13.2 µM

**Q.** And the “TGI, panel MG_MID” value [2]?
**A.** 31.15 µM

**Q.** What about the “TGI, values range inside panel” value [2] of the same substance?
**A.** 20.89 to 38.90 µM

**Q.** And the GI50 ([2]; read-out: GI50, panel MG_MID)?
**A.** 13.7 µM

**Q.** And the “TGI, panel MG_MID” value [3]?
**A.** 27.11 µM

**Q.** And the “TGI, values range inside panel” value [3]?
**A.** 16.21 to 38.01 µM

**Q.** And the GI50 ([3]; read-out: GI50, panel MG_MID)?
**A.** 7.6 µM

**Q.** And the GI50 [3, 4]?
**A.** 3.98 to 11.2 µM

Source: publication PMC7926352, “Synthesis, Characterization and In Vitro Evaluation of Novel 5-Ene-thiazolo[3,2-b][1,2,4]triazole-6(5H)-ones as Possible Anticancer Agents” (Molecules, 2021)
